Article PMC11273260

Key:
[1] = tested on: MCF-7 breast carcinoma cell line; assay: MTT cytotoxic activity against MCF-7 breast carcinoma cell line; conditions: Homo sapiens, MCF7, read-out: IC50 (μM) MCF-7
EGFR kinase = target: T1, EGFR kinase (Homo sapiens, UniProt P00533); assay: EGFR-TK inhibition assay (BPS Bioscience EGFR Kinase Assay Kit); assay type: biochemical
T1 construct: purchased BPS Bioscience 40321
From the text: S4.2.1. Cytotoxic activity evaluation
adenocarcinoma (MCF-7) cell line.
Dimethyl sulphoxide (DMSO) in
S4.2.2. EGFR kinase Assay

MCF-7 cells [2] = assay: Annexin V FITC/PI apoptosis staining assay by flow cytometry; assay type: cell-based; conditions: 2.71 μM, 48 h
From the text: In addition, an increase in the primary apoptotic cells was also observed. It is noteworthy that, the percentage of primary apoptosis was rise from 0.39 to 9.55% as compared to DMSO control (Fig. 4). According to these findings, it could be concluded that this set of compounds could halt MCF-7 cells in G1 phase and provoke apoptotic cellular death.
Apoptosis in MCF-7 cells was investigated using fluorescent Annexin V-FITC/ PI detection kit (BioVision Annexin V-FITC Apoptosis Detection Kit, Catalog #: K101) by flow cytometry assay. MCF-7 cells at a density of 2 × 10^5 per well were treated with compound 6h at the IC50 (µM) for 48 h, then the cells were harvested and stained with Annexin V-FITC/ PI dye for 15 min in the dark at 37 °C. The samples were immediately analyzed using FACS Calibur flow cytometer (Becton and Dickinson, […]

MCF-7 cells [3] = assay: Cell cycle analysis by flow cytometry (PI staining); assay type: cell-based
Procedure: It is well documented that most tyrosine kinase inhibitors exert strong antiproliferative and pro-apoptotic effect.[38] […] These findings are in agreement with the previously observed for EGFR-TK structural analogues.[39]
S4.2.3. Cell cycle analysis of compound 6h
Cell cycle analysis in MCF-7 cells was investigated using fluorescent […] (BioVision EZCellTM Cell Cycle Analysis Kit Catalog #K920) by flow cytometry assay. MCF-7 cells at a density of 2 × 10^5 per well were harvested and washed twice in PBS. After that, the cells were incubated at 37 °C and 5% CO2. The medium was incubated with the tested compound 6h at the IC50 (µM) for 48 h, washed twice in PBS, fixed with 70% ethanol, rinsed again with PBS. Afterward, medium was stained with DNA fluorochrome PI for 15 min at 37 °C. The samples were immediately analyzed using Facs Calibur flow cytometer (Becton and Dickinson, Heidelberg, […]
S4.2.4. Apoptosis assay for compound 6h
(1 picture or pasted object on this page, not shown here)

p53 = assay: Apoptotic marker determination by qRT-PCR: p53; assay type: cell-based; conditions: MCF-7 cells, 2.71 μM, 48 h, compared to DMSO controls
From the text: (§1) p53 is a transcription factor that both initiates and suppresses a number of target genes involved in cancer progression and apoptosis.[40] The p53 protein level increase during cellular stress and cytotoxic drugs by increased transcription or increased stability due to post-translational modifications such as phosphorylation.[41] The ability of p53 to modulate caspase activation and apoptosis induction is critical to its role as tumor suppressor.[42] Coordinately, p53 activation promotes the loss of mitochondrial potential ultimately leading to caspase activation and apoptosis.[43] […] An increase in the level of p53 was detected in the tested cell line compared with controls at 48 h. The increased expression of p53 level was coupled with increase in the level of caspase 9 in compound 6h-treated MCF-7 cell line at 48 h. The levels of p53 and caspase 9 were increased by 7.4- and 8.7-fold, respectively compared with controls (Fig. 5).
(§2) MCF-7 cells were treated with 2.71 μM of tested hybrid for 48 h before qRT-PCR measurement and compared to untreated controls. (A) p53 level; (B) caspase 9 level.

caspase 9 = assay: Apoptotic marker determination by qRT-PCR: caspase 9; assay type: cell-based; conditions: MCF-7 cells, 2.71 μM, 48 h, compared to DMSO controls
From the text: as §1, §2

T1 sequence (P00533 25-1210): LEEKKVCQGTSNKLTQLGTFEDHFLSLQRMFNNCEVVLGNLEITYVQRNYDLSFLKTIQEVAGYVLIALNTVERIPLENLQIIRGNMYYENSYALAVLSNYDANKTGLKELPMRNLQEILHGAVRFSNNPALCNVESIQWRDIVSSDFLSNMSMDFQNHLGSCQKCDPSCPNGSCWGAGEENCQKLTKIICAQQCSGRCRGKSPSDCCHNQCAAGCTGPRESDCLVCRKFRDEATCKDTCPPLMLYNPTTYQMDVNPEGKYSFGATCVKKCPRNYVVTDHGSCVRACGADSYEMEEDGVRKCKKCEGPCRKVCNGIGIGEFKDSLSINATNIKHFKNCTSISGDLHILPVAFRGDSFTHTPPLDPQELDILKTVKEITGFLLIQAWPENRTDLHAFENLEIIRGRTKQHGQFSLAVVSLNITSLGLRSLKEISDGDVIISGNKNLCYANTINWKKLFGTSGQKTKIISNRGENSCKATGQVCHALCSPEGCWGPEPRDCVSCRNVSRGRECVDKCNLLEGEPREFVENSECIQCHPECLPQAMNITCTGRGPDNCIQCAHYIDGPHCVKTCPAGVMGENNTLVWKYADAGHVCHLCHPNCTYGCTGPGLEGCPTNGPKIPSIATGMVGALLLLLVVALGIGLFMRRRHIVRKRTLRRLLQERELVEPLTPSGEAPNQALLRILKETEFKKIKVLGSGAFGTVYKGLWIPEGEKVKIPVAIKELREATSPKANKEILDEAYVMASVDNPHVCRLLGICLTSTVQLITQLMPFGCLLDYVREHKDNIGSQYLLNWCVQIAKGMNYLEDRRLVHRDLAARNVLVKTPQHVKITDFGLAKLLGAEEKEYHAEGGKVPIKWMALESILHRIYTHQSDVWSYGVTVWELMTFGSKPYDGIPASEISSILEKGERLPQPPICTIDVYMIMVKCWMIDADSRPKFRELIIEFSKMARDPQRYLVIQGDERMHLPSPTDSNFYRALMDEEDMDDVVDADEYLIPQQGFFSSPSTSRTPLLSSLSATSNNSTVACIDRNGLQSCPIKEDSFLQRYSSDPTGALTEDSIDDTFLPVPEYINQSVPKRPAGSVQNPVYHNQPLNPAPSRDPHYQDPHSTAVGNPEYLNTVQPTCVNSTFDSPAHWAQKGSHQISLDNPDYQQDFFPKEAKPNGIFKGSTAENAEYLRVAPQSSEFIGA

melting point [°C] | SMILES | IC50 [1] [µM] | further results
246 to 248 | COc1ccc(C(=O)N/C(=C\c2ccc(C)cc2)C(=O)NNC(=O)c2cc(-c3ccc(Br)cc3)nc3ccccc23)cc1 [Compound 6a, (Z)-N-(3-(2-(2-(4-Bromophenyl)quinoline-4-carbonyl)hydrazinyl)-3-oxo-1-p-tolylprop-1-en-2-yl)-4-methoxybenzamide] | 3.39 ± 0.11 | IC50 (EGFR kinase): 310 nM
192 to 194 | COc1ccc(C(=O)N/C(=C\c2ccc(OC)c(OC)c2OC)C(=O)NNC(=O)c2cc(-c3ccc(Br)cc3)nc3ccccc23)cc1 [Compound 6c, (Z)-N-(3-(2-(2-(4-Bromophenyl)quinoline-4-carbonyl)hydrazinyl)-3-oxo-1-(2,3,4-trimethoxyphenyl)prop-1-en-2-yl)-4-methoxybenzamide] | 51.8 ± 1.54 | –
258 to 260 | COc1ccc(C(=O)N/C(=C\c2ccc(F)cc2)C(=O)NNC(=O)c2cc(-c3ccc(Br)cc3)nc3ccccc23)cc1 [Compound 6e, (Z)-N-(3-(2-(2-(4-Bromophenyl)quinoline-4-carbonyl)hydrazinyl)-1-(4-fluorophenyl)-3-oxoprop-1-en-2-yl)-4-methoxybenzamide] | 21.2 ± 0.68 | –
217 to 219 | COc1ccc(C(=O)N/C(=C\c2cc(Br)c(OC(C)=O)c(Br)c2)C(=O)NNC(=O)c2cc(-c3ccc(Br)cc3)nc3ccccc23)cc1 [Compound 6i, (Z)-2,6-Dibromo-4-(3-(2-(2-(4-bromophenyl)quinoline-4-carbonyl)hydrazinyl)-2-(4-methoxybenzamido)-3-oxoprop-1-enyl)phenyl acetate] | 8.77 ± 0.28 | –
– | COc1ccc(C(=O)N/C(=C\c2ccc([N+](=O)[O-])cc2)C(=O)NNC(=O)c2cc(-c3ccc(Br)cc3)nc3ccccc23)cc1 [Compound 6h, (Z)-N-(3-(2-(2-(4-Bromophenyl)quinoline-4-carbonyl)hydrazinyl)-1-(4-nitrophenyl)-3-oxoprop-1-en-2-yl)-4-methoxybenzamide] | 2.71 ± 0.09 | percentage of secondary cellular apoptosis (MCF-7 cells [2]; DMSO control 0.11%): 17.78%; percentage of primary apoptosis (MCF-7 cells [2]; DMSO control 0.39%): 9.55%; G1 phase arrest, fold more than DMSO controls (MCF-7 cells [3]; 2.71 μM): 1.3 fold; percentage of cells in G2/M phase (MCF-7 cells [3]; 2.71 μM (IC50) of compound, 48 h, DMSO control 15.56%): 9.37%; percentage of cells in S phase (MCF-7 cells [3]; 2.71 μM (IC50) of compound, 48 h, DMSO control 37.51%): 28.48%; proportion of cells in G1 phase (MCF-7 cells [3]; 2.71 μM (IC50) of compound, 48 h, DMSO control 46.93%): 62.15%; increase of p53 level vs controls (p53): 7.4 fold; increase of caspase 9 level vs controls (caspase 9): 8.7 fold; IC50 (EGFR kinase): 220 nM
208 to 210 | COc1ccc(C(=O)N/C(=C\c2cc(OC)c(OC)c(OC)c2)C(=O)NNC(=O)c2cc(-c3ccc(Br)cc3)nc3ccccc23)cc1 [Compound 6d, (Z)-N-(3-(2-(2-(4-Bromophenyl)quinoline-4-carbonyl)hydrazinyl)-3-oxo-1-(3,4,5-trimethoxyphenyl)prop-1-en-2-yl)-4-methoxybenzamide] | 17.1 ± 0.55 | –
– | COc1cccc2c1C(=O)c1c(O)c3c(c(O)c1C2=O)C[C@@](O)(C(=O)CO)C[C@@H]3O[C@H]1C[C@H](N)[C@H](O)[C@H](C)O1 [Dox, Doxorubicin, reference compound] | 6.18 ± 0.2 | –
276 to 278 | COc1ccc(C(=O)N/C(=C\c2ccc(Cl)cc2)C(=O)NNC(=O)c2cc(-c3ccc(Br)cc3)nc3ccccc23)cc1 [Compound 6f, (Z)-N-(3-(2-(2-(4-Bromophenyl)quinoline-4-carbonyl)hydrazinyl)-1-(4-chlorophenyl)-3-oxoprop-1-en-2-yl)-4-methoxybenzamide] | 26 ± 0.84 | –
261 to 263 | COc1ccc(C(=O)N/C(=C\c2ccc(Br)cc2)C(=O)NNC(=O)c2cc(-c3ccc(Br)cc3)nc3ccccc23)cc1 [Compound 6g, (Z)-N-(1-(4-Bromophenyl)-3-(2-(2-(4-bromophenyl)quinoline-4-carbonyl)hydrazinyl)-3-oxoprop-1-en-2-yl)-4-methoxybenzamide] | 39.1 ± 1.26 | –
257 to 259 | COc1ccc(C(=O)N/C(=C\c2ccco2)C(=O)NNC(=O)c2cc(-c3ccc(Br)cc3)nc3ccccc23)cc1 [Compound 5, (Z)-N-(3-(2-(2-(4-Bromophenyl)quinoline-4-carbonyl)hydrazinyl)-1-(furan-2-yl)-3-oxoprop-1-en-2-yl)-4-methoxybenzamide] | 12.5 ± 0.4 | –
235 to 237 | COc1ccc(C(=O)N/C(=C\c2ccc(OC)c(OC)c2)C(=O)NNC(=O)c2cc(-c3ccc(Br)cc3)nc3ccccc23)cc1 [Compound 6b, (Z)-N-(3-(2-(2-(4-Bromophenyl)quinoline-4-carbonyl)hydrazinyl)-1-(3,4-dimethoxyphenyl)-3-oxoprop-1-en-2-yl)-4-methoxybenzamide] | 5.94 ± 0.17 | –
